According to patent US4454140A, “Nasal administration of dextromethorphan” (Hoffmann-La Roche Inc., priority 1982, dated 1984):
“And” between values parts separate entries of the source, which are not always exact repeats. Identical values can stand only once. Like-named read-outs stand apart in the source and are kept apart here.

Assay: bioavailability of dextromethorphan after nasal, oral and intravenous administration (plasma levels, spectrofluorophotometric)
Assay type: in vivo, female beagle dogs
Details: for AUC(0-t) at 2 h / concentration at 1 min / concentration at 0.05 h / concentration at 0.1 h / concentration at 0.2 h / concentration at 20 min / concentration at 35 min / concentration at 55 min / concentration at 80 min / concentration at 2 h / bioavailability at 2 h / concentration at 3 h: dog, plasma, 15 mg; for AUC(0-t) at 2 h / AUC 0-120 min., Individual AUC: 15 mg/dog; for concentration at 1 min / concentration at 0.05 h / concentration at 0.1 h / concentration at 0.2 h / concentration at 20 min / concentration at 35 min / concentration at 55 min / concentration at 80 min / concentration at 2 h / concentration at 3 h / Plasma Concentration: HBr salt 15 mg/dog; for bioavailability at 2 h: relative to intravenous, 0-120 min
Procedure: The following study was undertaken to determine the bioavailability of dextromethorphan from nasal solution in comparison with the bioavailability of the drug when administered orally and intravenously.
Three female beagle dogs weighing about 10 kg each were used for the study without fasting. For nasal administration, the dogs were anaesthetized with an intravenous injection of 30 mg/kg of sodium pentobarbital, and 0.5 ml of a warm saline solution containing dextromethorphan (30 mg/ml) was then administered to the nasal cavity through the nostrils with a syringe. For oral administration, the dogs were not anaesthetized and 10 ml of a saline solution containing dextromethorphan hydrobromide (1.5 mg/ml) was administered via a stomach tube. For intravenous administration, the dogs were anaesthetized as noted above, and one ml of a saline solution containing dextromethorphan hydrobromide (15 mg/ml) was injected through the cubital vein.
After nasal, oral, and intravenous administration, blood was sampled from the cubital vein periodically. The blood sample, was centrifuged and 2.5 ml of plasma were analyzed. Plasma levels of dextromethorphan were determined spectrofluorophotometrically by a modification of the method of Ramachander, et al., J. Pharm. Sci., 66, 1047 (1977). Specifically, plasma was transferred into a glass tube, 0.5 ml of a saturated solution of sodium carbonate and 10 ml of ethyl acetate were added, and the contents shaken well. After centrifuging, an aliquot (8 ml) of the supernate was transferred into a glass tube containing 1.5 ml of 1.0N HCl, and was extracted into the acid layer after mixing well and centrifuging. The fluorescence of the acid layer was determined by a spectrofluorophotometer, Aminco-Bowman Ratio II, American Instrument Co. The excitation and emission wave lengths were 278 nm and 306 nm, respectively. Recovery of known amounts of dextromethorphan spiked with dog plasma was 50% of the added concentration. For calculating the drug plasma level, the above correction factor was taken into consideration.
Table I reports the plasma concentration of dextromethorphan after nasal, intravenous, and oral administration of 15 mg/dog of dextromethorphan hydrobromide salt.

Work on COc1ccc2c(c1)[C@]13CCCC[C@@H]1[C@H](C2)N(C)CC3 [dextromethorphan, d-3-methoxy-N-methylmorphinan] yielded an AUC(0-t) at 2 h (nasal, average of three dogs, read-out: AUC 0-120 min., Average ± S.E. (converted)) of 472 ng·h/mL, a concentration at 1 min (nasal, dog #1, 1 min) of 72.1 ng/mL and a concentration at 0.05 h (nasal, dog #1, 3 min) of 323 ng/mL. It also gave a concentration at 0.1 h (nasal, dog #1, 6 min) of 618 ng/mL, a concentration at 0.2 h (nasal, dog #1, 12 min) of 684 ng/mL and a concentration at 20 min (nasal, dog #1, 20 min) of 503 ng/mL. For the same molecule, the concentration at 35 min (nasal, dog #1, 35 min) was 276 ng/mL, the concentration at 55 min (nasal, dog #1, 55 min) was 240 ng/mL and the concentration at 80 min (nasal, dog #1, 80 min) was 201 ng/mL. The concentration at 2 h (nasal, dog #1, 120 min) was 154 ng/mL, the concentration at 1 min (nasal, dog #2, 1 min) was 89.1 ng/mL and the concentration at 0.05 h (nasal, dog #2, 3 min) was 793 ng/mL. For the same molecule, the concentration at 0.1 h (nasal, dog #2, 6 min) was 733 ng/mL, the concentration at 0.2 h (nasal, dog #2, 12 min) was 888 ng/mL and the concentration at 20 min (nasal, dog #2, 20 min) was 260 ng/mL. For the same molecule, the concentration at 35 min (nasal, dog #2, 35 min) was 201 ng/mL, the concentration at 55 min (nasal, dog #2, 55 min) was 170 ng/mL and the concentration at 80 min (nasal, dog #2, 80 min) was 183 ng/mL. It also gave a concentration at 2 h (nasal, dog #2, 120 min) of 141 ng/mL, a concentration at 1 min (nasal, dog #3, 1 min) of 84.2 ng/mL and a concentration at 0.05 h (nasal, dog #3, 3 min) of 428 ng/mL. The concentration at 0.1 h (nasal, dog #3, 6 min) was 493 ng/mL, the concentration at 0.2 h (nasal, dog #3, 12 min) was 385 ng/mL and the concentration at 20 min (nasal, dog #3, 20 min) was 263 ng/mL. It also gave a concentration at 35 min (nasal, dog #3, 35 min) of 165 ng/mL, a concentration at 55 min (nasal, dog #3, 55 min) of 129 ng/mL and a concentration at 80 min (nasal, dog #3, 80 min) of 93.3 ng/mL. The concentration at 2 h (nasal, dog #3, 120 min) was 108 ng/mL, the AUC(0-t) at 2 h (nasal, individual dogs, read-out: AUC 0-120 min., Individual AUC (converted)) was 568 ng·h/mL and the bioavailability at 2 h (nasal) was 110%. It also gave a bioavailability at 2 h (oral) of 30.2%, a concentration at 1 min (iv, dog #1, 1 min) of 1530 ng/mL and a concentration at 0.05 h (iv, dog #1, 3 min) of 927 ng/mL. It also gave a concentration at 0.1 h (iv, dog #1, 6 min) of 708 ng/mL, a concentration at 0.2 h (iv, dog #1, 12 min) of 482 ng/mL and a concentration at 20 min (iv, dog #1, 20 min) of 331 ng/mL. The concentration at 35 min (iv, dog #1, 35 min) was 296 ng/mL, the concentration at 55 min (iv, dog #1, 55 min) was 171 ng/mL and the concentration at 80 min (iv, dog #1, 80 min) was 134 ng/mL. For the same molecule, the concentration at 2 h (iv, dog #1, 120 min) was 144 ng/mL, the concentration at 1 min (iv, dog #2, 1 min) was 1590 ng/mL and the concentration at 0.05 h (iv, dog #2, 3 min) was 952 ng/mL. The concentration at 0.1 h (iv, dog #2, 6 min) was 532 ng/mL, the concentration at 0.2 h (iv, dog #2, 12 min) was 349 ng/mL and the concentration at 20 min (iv, dog #2, 20 min) was 229 ng/mL. The concentration at 35 min (iv, dog #2, 35 min) was 166 ng/mL, the concentration at 55 min (iv, dog #2, 55 min) was 146 ng/mL and the concentration at 80 min (iv, dog #2, 80 min) was 165 ng/mL. For the same molecule, the concentration at 2 h (iv, dog #2, 120 min) was 141 ng/mL, the concentration at 1 min (iv, dog #3, 1 min) was 1490 ng/mL and the concentration at 0.05 h (iv, dog #3, 3 min) was 907 ng/mL. It also gave a concentration at 0.1 h (iv, dog #3, 6 min) of 430 ng/mL, a concentration at 0.2 h (iv, dog #3, 12 min) of 322 ng/mL and a concentration at 20 min (iv, dog #3, 20 min) of 187 ng/mL. The concentration at 35 min (iv, dog #3, 35 min) was 102 ng/mL, the concentration at 55 min (iv, dog #3, 55 min) was 81.4 ng/mL and the concentration at 80 min (iv, dog #3, 80 min) was 46.2 ng/mL. It also gave a concentration at 2 h (iv, dog #3, 120 min) of 37.3 ng/mL, an AUC(0-t) at 2 h (iv, intravenous, average of three dogs, read-out: AUC 0-120 min., Average ± S.E. (converted)) of 431 ng·h/mL and an AUC(0-t) at 2 h (iv, intravenous, individual dogs, read-out: AUC 0-120 min., Individual AUC (converted)) of 537 ng·h/mL. It also gave a concentration at 20 min (po, dog #1, 20 min) of 7.5 ng/mL, a concentration at 35 min (po, dog #1, 35 min) of 43.4 ng/mL and a concentration at 55 min (po, dog #1, 55 min) of 73.6 ng/mL. For the same molecule, the concentration at 80 min (po, dog #1, 80 min) was 80.1 ng/mL, the concentration at 2 h (po, dog #1, 120 min) was 74.7 ng/mL and the concentration at 3 h (po, dog #1, 180 min) was 63.3 ng/mL. The concentration at 0.1 h (po, dog #2, 6 min) was 18.5 ng/mL, the concentration at 0.2 h (po, dog #2, 12 min) was 40 ng/mL and the concentration at 20 min (po, dog #2, 20 min) was 62.9 ng/mL. The concentration at 35 min (po, dog #2, 35 min) was 94.4 ng/mL, the concentration at 55 min (po, dog #2, 55 min) was 92.3 ng/mL and the concentration at 80 min (po, dog #2, 80 min) was 86.8 ng/mL. For the same molecule, the concentration at 2 h (po, dog #2, 120 min) was 86 ng/mL, the concentration at 3 h (po, dog #2, 180 min) was 85.7 ng/mL and the concentration at 20 min (po, dog #3, 20 min) was 18.4 ng/mL. The concentration at 35 min (po, dog #3, 35 min) was 47.6 ng/mL, the concentration at 55 min (po, dog #3, 55 min) was 65 ng/mL and the concentration at 80 min (po, dog #3, 80 min) was 95.5 ng/mL. The concentration at 2 h (po, dog #3, 120 min) was 91.5 ng/mL, the concentration at 3 h (po, dog #3, 180 min) was 53.4 ng/mL and the AUC(0-t) at 2 h (po, oral, average of three dogs, read-out: AUC 0-120 min., Average ± S.E. (converted)) was 130 ng·h/mL. For the same molecule, the AUC(0-t) at 2 h (po, oral, individual dogs, read-out: AUC 0-120 min., Individual AUC (converted)) was 110 ng·h/mL, the “AUC 0-120 min., Individual AUC” value (intravenous, individual dogs) was 27597.7 ng eq. ml-^1 min and 17668.5 ng eq. ml-^1 min and the “absorption after nasal administration vs standard oral route” value (nasal vs oral) was “more rapid and more complete absorption”. For the same molecule, the “blood level after nasal administration” value (nasal, 15 mg dose, about 5 minutes to about 2 hours, vs injected dose (FIG. 1)) was “blood levels comparable to an injected dose”, the “AUC 0-120 min., Individual AUC” value (nasal, individual dogs) was 30735.4 ng eq. ml-^1 min and 20139.0 ng eq. ml-^1 min and the “Plasma Concentration” value (oral, dog #1, 1 min) was 0 ng eq./ml. For the same molecule, the “Plasma Concentration” value (oral, dog #1, 3 min) was 0 ng eq./ml, the “Plasma Concentration” value (oral, dog #1, 6 min) was 0 ng eq./ml and the “Plasma Concentration” value (oral, dog #1, 12 min) was 0 ng eq./ml. The “Plasma Concentration” value (oral, dog #2, 1 min) was 0 ng eq./ml, the “Plasma Concentration” value (oral, dog #2, 3 min) was 0 ng eq./ml and the “Plasma Concentration” value (oral, dog #3, 1 min) was 0 ng eq./ml. The “Plasma Concentration” value (oral, dog #3, 3 min) was 0 ng eq./ml, the “Plasma Concentration” value (oral, dog #3, 6 min) was 0 ng eq./ml and the “Plasma Concentration” value (oral, dog #3, 12 min) was 0 ng eq./ml. The “AUC 0-120 min., Individual AUC” value (oral, individual dogs) was 9356.5 ng eq. ml-^1 min and 7441.6 ng eq. ml-^1 min and the “blood level after oral administration” value (oral, same dosage level (15 mg), FIG. 1) was “considerably lower blood levels”.
